This data set is described as follows: Pharmacokinetics: quantitative determination of compounds in mice plasma. The data set is classed as in vivo, C57BL/6 Mice. To be noted: 10 mg/kg PO single dose, vehicle 10% NMP; for AUC(0-inf) / AUC(0-t) / Cmax / Tmax: C57BL/6, mouse. How it is done:
C57BL/6 Mice, Age 7-9 weeks, body weight range 20-25 g were used. The mice were fasted overnight. Mice were dosed once a day for a single day at 10 mg/kg, 10 mg/kg. 6 time-points were used for whole blood. 10% NMP was used as a vehicle. 9 animals were used per treatment, with three groups of three animals each. Group 1 had time points at 15 and 60 minutes, Group 2 had time points at 30 and 120 minutes, and Group 3 had time points at 90 and 240 minutes. An Oral (PO) route was used. Plasma and brain samples were collected (brain sample collected at terminal time point). Plasma was collected through the centrifugation of whole blood at 10,000 rpm for 10 minutes at 4° C. Samples were stored at −80° C. until processing.
1.00 mg/mL in 100% MeOH PP vials (prepared at RT yellow light) at 2-8° C. were used as stock solution. 12.22-50000 ng/mL using 80% MeOH PP vials (prepared at RT yellow light) at 2-8° C. were used as working solution. 0.98-4000 ng/mL (prepared at RT yellow light) was used for the curve range. For Compounds 26, 40, and 50, 1.00 mg/mL of Compound 53 in 100% methanol Ria vials (Prepared at RT yellow light) was used as IS stock solution, and 80 ng/mL of Compound 53 in 80% methanol (Prepared at RT yellow light) was used as IS working solution. For Compound 36, 1.00 mg/mL of Compound 47 in 100% methanol Ria vials (Prepared at RT yellow light) was used as IS stock solution, and 80 ng/mL of Compound 47 in 80% methanol (Prepared at RT yellow light) was used as IS working solution. A linear, 1/×2 fit type was used. The injection volume was 10 μL for Compounds 26 and 36, and 5 μL for Compounds 40 and 50. Mobile Phase A was 0.1% Formic Acid in water at room temperature. Mobile Phase B was 100% methanol at room temperature. R0 wash solution was 80% methanol at room temperature. R3 wash solution was IPA/MeOH/ACN/water (1:1:1:1) at room temperature. The column was Agilent Eclipse 50*2.1 mm 1.8 μm and the instrument was Shimadzu LC-40 UPLC and AB Sciez 6500+ with LCMS002.
Using a pipette, 25 μL of each sample were aliquoted (calibration curve sample, QC samples and blank matrix) to labeled 1.5 ml eppendorf. Using a pipette, 5.0 μL of IS of conc. 80 ng (Cocktail IS) was aliquoted to each standards and samples except Blank. All tubes were mixed on a multi-tube vortex for approximately 30 seconds. 50 μL of 10 mM Sodium bi-carbonate were added. 1 ml of tert-butyl methyl ether (TBME) was added. All tubes were mixed on a multi-tube vortex for approximately 5 minutes then centrifuged for 10 min at 5,000 rpm for Compounds 26 and 36 and at 10,000 rpm for Compounds 40 and 50, 4° C. The sample was kept in methanol containing dry ice for few seconds to freeze the Aqueous layer (flash freeze method). The upper organic layer was poured from the frozen tubes into the labeled 12×75-mm rial vials and evaporated to dryness under nitrogen using Liquid Evaporator (30° C., ˜15 psi, ˜10 mins). 200 μl of reconstitution solution (0.1% Formic Acid: MeOH (20:80 v/v) were added into each tube. Samples were Vortexed for 30 seconds then transferred to amber glass injection vials for injection.
After test item administration, blood samples were collected from individual animals in previously labeled Heparinised blood collection tubes. Blood samples were collected from retro orbital plexus. The time points for collection of blood samples from all the animals are; 0.25, 0.5, 1, 2 and 4 hr. The collected samples were subjected to centrifugation @ 10,000 rpm for 10 minutes at 40° C. for separation of plasma. Thereafter, plasma samples were collected in previously labeled plasma tubes. These were stored at −80° C. until analysis.

Broadly, the AUC(0-inf) is total exposure, with the tail of the curve extrapolated. A low value points to low exposure. As usually defined, the AUC(0-t) is the area under the concentration-time curve up to a stated or last time point. Usually Cmax stands for the maximum level reached in the sampled fluid or tissue. For orientation: Tmax means the time at which the peak concentration occurs. With `CN1C(=O)CC[C@@]2(C)C1=CCC1C2[C@@H](O)C[C@@]2(C)C1CC[C@@H]2NC(=O)C1CC1` (stereo partly drawn) [Compound 26, N-((4aR,5S,6aS,7S)-5-hydroxy-1,4a,6a-trimethyl-2-oxo-2,3,4,4a,4b,5,6,6a,7,8,9,9a,9b,10-tetradecahydro-1H-indeno[5,4-f]quinolin-7-yl)cyclopropanecarboxamide], the T½ turned out to be 62 min, the AUC(0-inf) is 993 ng·h/mL, the AUC(0-t) is 930 ng·h/mL and the peak level (Cmax) was 2130 ng/mL. Besides, the Tmax stood at 15 min.

Turning to `CC(C)CCNC(=O)C1CCC2C3CC=C4N(C)C(=O)CC[C@]4(C)C3[C@@H](O)C[C@]12C` (stereo partly drawn) [Compound 36, (4aR,5S,6aS)-5-hydroxy-N-isopentyl-1,4a,6a-trimethyl-2-oxo-2,3,4,4a,4b,5,6,6a,7,8,9,9a,9b,10-tetradecahydro-1H-indeno[5,4-f]quinoline-7-carboxamide], the T½ is 66.6 min, the AUC(0-inf) was 1640 ng·h/mL, the AUC(0-t) came out at 1500 ng·h/mL and the Cmax amounted to 1960 ng/mL. Further, the Tmax is 15 min.

The compound `CNC(=O)[C@H]1CCC2C3CC=C4N(C)C(=O)CC[C@]4(C)C3[C@@H](O)C[C@@]21C` (stereo partly drawn) [Compound 40, (4aR,5S,6aS)-5-hydroxy-N,1,4a,6a-tetramethyl-2-oxo-2,3,4,4a,4b,5,6,6a,7,8,9,9a,9b,10-tetradecahydro-1H-indeno[5,4-f] quinoline-7-carboxamide] gave a T½ of 56 min, an area under the curve AUC(0-inf) of 2430 ng·h/mL, an AUC(0-t) of 2300 ng·h/mL and a Cmax of 2200 ng/mL. Besides, the Tmax turned out to be 15 min.
